The results in this text go back to patent publication US12365667B2, “Sulfone pyridine alkyl amide-substituted heteroaryl compounds” (BRISTOL-MYERS SQUIBB COMPANY, priority 2017, dated 2025).

SMILES strings stand for the structures. Like-named read-outs stand apart in the source and are kept apart here.

This experiment has as its system IFNα-induced STAT phosphorylation (pSTAT5) in human whole blood. The experiment can be described thus: IFNα-Induced STAT Phosphorylation in Human Whole Blood. It counts as cell-based. The note with it: 1 h incubation with compound, 1000 U/mL recombinant human IFNα A/D for 15 min, pSTAT5 in CD3 positive population, read-out: IFNα-Induced Stat Phosph. (IC50). The procedure: IFNα-Induced STAT Phosphorylation in Human Whole Blood
After an hour long incubation with compound, human whole blood (drawn with either EDTA or ACD-A as anti-coagulant) was stimulated with 1000 U/mL recombinant human IFNα A/D (R&D Systems 11200-2) for 15 min. The stimulation was stopped by adding Fix/Lyse buffer (BD 558049). Cells were stained with a CD3 FITC antibody (BD 555916), washed, and permeabilized on ice using Perm III buffer (BD 558050). Cells were then stained with an Alexa-Fluor 647 pSTAT5 (pY694) antibody (BD 612599) for 30 min prior to analysis on the FACS Canto II. The amount of pSTAT5 expression was quantitated by median fluorescence intensity after gating on the CD3 positive population.

The IC50 is the concentration at which inhibition is half-maximal. On to `CNC(=O)c1nnc(NC(=O)C2CC(F)C2)cc1Nc1ncccc1S(C)(=O)=O` (single isomer, unassigned) [Example 125], for which the IC50 was 272 nM.

Turning to `CNC(=O)c1nnc(NC(=O)C2CC(F)C2)cc1Nc1ncccc1S(C)(=O)=O` (single isomer, unassigned) [Example 126], the IC50 amounted to 343 nM.

With `[2H]C([2H])([2H])NC(=O)c1nnc(Nc2ccc(F)cn2)cc1Nc1ncccc1S(C)(=O)=O` [Example 1, 6-((5-fluoropyridin-2-yl)amino)-N-(methyl-d3)-4-((3-(methylsulfonyl)pyridin-2-yl)amino)pyridazine-3-carboxamide], the IC50 (Homo sapiens) amounted to 12 nM.

`CNC(=O)c1nnc(Nc2ccc(OC)cn2)cc1Nc1ncccc1S(C)(=O)=O` [Example 2]: the IC50 was found to be 26 nM.

In the case of `CNC(=O)c1nnc(Nc2cc(F)ccn2)cc1Nc1ncccc1S(C)(=O)=O` [Example 4], the IC50 was found to be 32 nM.

As to `CNC(=O)c1nnc(Nc2cccc(F)n2)cc1Nc1ncccc1S(C)(=O)=O` [Example 5], the IC50 is 13 nM.

For `CNC(=O)c1nnc(Nc2ccc(OC)nn2)cc1Nc1ncccc1S(C)(=O)=O` [Example 7], the IC50 was found to be 42 nM.

Consider `CCC(=O)Nc1cc(Nc2ncccc2S(C)(=O)=O)c(C(=O)NC)nn1` [Example 8], for which the IC50 was found to be 49 nM.

For the molecule `CNC(=O)c1nnc(NC(=O)C2CCC2)cc1Nc1ncccc1S(C)(=O)=O` [Example 9], the IC50 worked out at 77 nM.

For `CNC(=O)c1nnc(Nc2ccc(C)cn2)cc1Nc1ncccc1S(C)(=O)=O` [Example 10], the IC50 stood at 21 nM.

For `CNC(=O)c1nnc(Nc2cc(C#N)n(C)n2)cc1Nc1ncccc1S(C)(=O)=O` [Example 12], the IC50 was determined as 38 nM.

Turning to `[2H]C([2H])([2H])NC(=O)c1nnc(Nc2ccc(C(C)(C)O)cn2)cc1Nc1ncccc1S(C)(=O)=O` [Example 13, 6-((5-(2-hydroxypropan-2-yl)pyridin-2-yl)amino)-N-(methyl-d3)-4-((3-(methylsulfonyl)pyridin-2-yl)amino)pyridazine-3-carboxamide], the IC50 (Homo sapiens) amounted to 2 nM.

For the molecule `CNC(=O)c1nnc(Nc2cc(C3CC3)ncn2)cc1Nc1ncccc1S(C)(=O)=O` [Example 14], the IC50 was found to be 11 nM.

In the case of `CNC(=O)c1nnc(Nc2ccc(C3CC3)nn2)cc1Nc1ncccc1S(C)(=O)=O` [Example 15], the IC50 amounted to 13 nM.

As to `CNC(=O)c1nnc(Nc2ccc(F)nc2)cc1Nc1ncccc1S(C)(=O)=O` [Example 16], the IC50 came out at 1430 nM.

Turning to `CNC(=O)c1nnc(Nc2cc(C)n(C)n2)cc1Nc1ncccc1S(C)(=O)=O` [Example 17], the IC50 worked out at 18 nM.

In the case of `CNC(=O)c1nnc(Nc2ccc(C(F)(F)F)nn2)cc1Nc1ncccc1S(C)(=O)=O` [Example 19], the IC50 was determined as 44 nM.

On to `CNC(=O)c1nnc(Nc2ccn(CC(F)F)n2)cc1Nc1ncccc1S(C)(=O)=O` [Example 20], for which the IC50 was determined as 47 nM.

On to `CNC(=O)c1nnc(Nc2ccnc(OC)n2)cc1Nc1ncccc1S(C)(=O)=O` [Example 21], for which the IC50 was 37 nM.

Take `CNC(=O)c1nnc(Nc2cc(C(C)(C)O)c(F)cn2)cc1Nc1ncccc1S(C)(=O)=O` [Example 22]: the IC50 amounted to 31 nM.

For the molecule `CNC(=O)c1nnc(NC2CC2)cc1Nc1ncccc1S(C)(=O)=O` [Example 23], the half-maximal inhibitory concentration (IC50) was 2140 nM.

`CNC(=O)c1nnc(Nc2ccc(C(C)(C)N)cn2)cc1Nc1ncccc1S(C)(=O)=O` [Example 24]: the IC50 was found to be 9 nM.

For the molecule `CNC(=O)c1nnc(Nc2ccc(C(C)(C)NC(C)=O)cn2)cc1Nc1ncccc1S(C)(=O)=O` [Example 25], the half-inhibitory concentration (IC50) was 15 nM.

Regarding `CNC(=O)c1nnc(Nc2ccn(CC(F)(F)F)n2)cc1Nc1ncccc1S(C)(=O)=O` [Example 26], the IC50 was determined as 49 nM.

In the case of `CNC(=O)c1nnc(Nc2cc(C(F)(F)F)ncn2)cc1Nc1ncccc1S(C)(=O)=O` [Example 27], the IC50 came out at 88 nM.

Take `CNC(=O)c1nnc(Nc2ccc(OC)nn2)cc1Nc1ncccc1S(C)(=O)=O` [Example 28]: the IC50 was 28 nM.

For `CNC(=O)c1nnc(Nc2cc(C(C)(C)O)c(Cl)cn2)cc1Nc1ncccc1S(C)(=O)=O` [Example 29], the 50% inhibitory concentration (IC50) was 92 nM.

For the molecule `CNC(=O)c1nnc(Nc2cc3ccc(C(C)(C)O)cc3cn2)cc1Nc1ncccc1S(C)(=O)=O` [Example 30], the IC50 is 57 nM.

For `CNC(=O)c1nnc(Nc2cc(C(F)(F)F)c(C(C)(C)O)cn2)cc1Nc1ncccc1S(C)(=O)=O` [Example 31], the IC50 came to 31 nM.

`CNC(=O)c1nnc(Nc2ccc(C3(C#N)CC3)cn2)cc1Nc1ncccc1S(C)(=O)=O` [Example 33]: the IC50 came out at 18 nM.

Turning to `CNC(=O)c1nnc(Nc2cc(N(C)C)ncn2)cc1Nc1ncccc1S(C)(=O)=O` [Example 34], the IC50 came to 115 nM.

With `CNC(=O)c1nnc(Nc2cc(N3CCC3)ncn2)cc1Nc1ncccc1S(C)(=O)=O` [Example 35], the IC50 is 90 nM.

As to `CNC(=O)c1nnc(Nc2cc(OC)c(C(C)(C)O)cn2)cc1Nc1ncccc1S(C)(=O)=O` [Example 36], the IC50 came to 22 nM.

With `CNC(=O)c1nnc(Nc2cnc(C3CC3)cn2)cc1Nc1ncccc1S(C)(=O)=O` [Example 37], the IC50 is 26 nM.

Consider `CNC(=O)c1nnc(Nc2ccc(N(C)C)nn2)cc1Nc1ncccc1S(C)(=O)=O` [Example 38], for which the IC50 stood at 18 nM.

Take `CCc1cnc(Nc2cc(Nc3ncccc3S(C)(=O)=O)c(C(=O)NC)nn2)cn1` [Example 39]: the IC50 came out at 15 nM.

Regarding `CNC(=O)c1nnc(Nc2ccnc(C3CC3)n2)cc1Nc1ncccc1S(C)(=O)=O` [Example 40], the IC50 is 18 nM.

`CNC(=O)c1nnc(Nc2cc(C3CC3)nc(COC)n2)cc1Nc1ncccc1S(C)(=O)=O` [Example 41]: the IC50 was found to be 24 nM.

For the molecule `CNC(=O)c1nnc(Nc2cnc(COC)cn2)cc1Nc1ncccc1S(C)(=O)=O` [Example 42], the IC50 was 15 nM.

As for `CNC(=O)c1nnc(NC(=O)[C@@H]2C[C@H]2F)cc1Nc1ncccc1S(C)(=O)=O` [Example 43], the IC50 was 26 nM.

As for `CNC(=O)c1nnc(NC(=O)[C@@H]2C[C@@H]2F)cc1Nc1ncccc1S(C)(=O)=O` [Example 44], the half-inhibitory concentration (IC50) was 14 nM.

For the molecule `CNC(=O)c1nnc(NC(=O)C2CC2(F)F)cc1Nc1ncccc1S(C)(=O)=O` (centres unmarked) [Example 45], the IC50 is 34 nM.

As to `CNC(=O)c1nnc(NC(=O)[C@@H]2C[C@H]2C)cc1Nc1ncccc1S(C)(=O)=O` [Example 46], the IC50 amounted to 53 nM.

Consider `CNC(=O)c1nnc(NC(=O)C2CC23CC3)cc1Nc1ncccc1S(C)(=O)=O` (centres unmarked) [Example 47], for which the IC50 was found to be 48 nM.

For the molecule `CNC(=O)c1nnc(NC(=O)[C@@H]2C[C@@H]2C)cc1Nc1ncccc1S(C)(=O)=O` [Example 48], the IC50 amounted to 40 nM.

For the molecule `CNC(=O)c1nnc(NC(=O)[C@H]2C[C@@H]2C)cc1Nc1ncccc1S(C)(=O)=O` [Example 49], the IC50 turned out to be 58 nM.

With `CNC(=O)c1nnc(Nc2cc(C(F)(F)F)c(C(=O)N(C)C)cn2)cc1Nc1ncccc1S(C)(=O)=O` [Example 50], the IC50 was determined as 30 nM.

For `CNC(=O)c1nnc(Nc2cnn(C)n2)cc1Nc1ncccc1S(C)(=O)=O` [Example 51], the IC50 was 29 nM.

Take `CNC(=O)c1nnc(Nc2cc(C(F)(F)F)c(C(=O)N(C)C3CC3)cn2)cc1Nc1ncccc1S(C)(=O)=O` [Example 52]: the half-inhibitory concentration (IC50) was found to be 92 nM.

As to `CNC(=O)c1nnc(Nc2cn(C)nn2)cc1Nc1ncccc1S(C)(=O)=O` [Example 53], the IC50 stood at 132 nM.
